Data set [1] can be described thus: Octanol-water distribution coefficient (logD pH 7.4) of the labeled tracer. Format: physicochemical. To be noted: n-octanol/PBS pH 7.4, room temperature. The gist of the method:
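About 1 MBq tracer partitioned in 1:1 PBS pH 7.4/n-octanol, mixed 3 min at room temperature, centrifuged 15000 g for 5 min. Both layers counted by gamma counter; at least six repeats.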

For another data set, the target named is T1, SST2 (Homo sapiens, UniProt P30874).
T1 construct: expressed in transfected cells; host or cells: CHO (Chinese hamster ovary) cells
T1 sequence (P30874 whole entry, species assumed): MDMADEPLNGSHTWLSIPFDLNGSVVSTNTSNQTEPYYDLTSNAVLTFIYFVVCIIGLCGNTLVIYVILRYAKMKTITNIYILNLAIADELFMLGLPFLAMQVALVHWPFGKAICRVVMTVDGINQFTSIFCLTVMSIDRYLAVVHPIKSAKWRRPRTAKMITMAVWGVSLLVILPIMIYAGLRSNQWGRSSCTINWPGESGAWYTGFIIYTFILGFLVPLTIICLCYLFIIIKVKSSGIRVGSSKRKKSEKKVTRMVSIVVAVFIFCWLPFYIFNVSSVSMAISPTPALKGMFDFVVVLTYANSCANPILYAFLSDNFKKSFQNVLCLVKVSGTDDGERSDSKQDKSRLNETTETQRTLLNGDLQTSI
As to the kind of experiment: Determination of IC50: competitive binding against [125I]TOC on SST2-transfected CHO cells. As to conditions: [125I]TOC reference radioligand, 60 min room temperature.

The target of another data set is HSA (Homo sapiens, UniProt P02768). Nature of the data set: HSA binding by RIAC method (gel filtration, apparent molecular weight). Format: in vitro ADME. As to conditions: HSA binding as apparent molecular weight, 700 μM HSA in PBS mobile phase.
HSA, sequence (P02768 25-609): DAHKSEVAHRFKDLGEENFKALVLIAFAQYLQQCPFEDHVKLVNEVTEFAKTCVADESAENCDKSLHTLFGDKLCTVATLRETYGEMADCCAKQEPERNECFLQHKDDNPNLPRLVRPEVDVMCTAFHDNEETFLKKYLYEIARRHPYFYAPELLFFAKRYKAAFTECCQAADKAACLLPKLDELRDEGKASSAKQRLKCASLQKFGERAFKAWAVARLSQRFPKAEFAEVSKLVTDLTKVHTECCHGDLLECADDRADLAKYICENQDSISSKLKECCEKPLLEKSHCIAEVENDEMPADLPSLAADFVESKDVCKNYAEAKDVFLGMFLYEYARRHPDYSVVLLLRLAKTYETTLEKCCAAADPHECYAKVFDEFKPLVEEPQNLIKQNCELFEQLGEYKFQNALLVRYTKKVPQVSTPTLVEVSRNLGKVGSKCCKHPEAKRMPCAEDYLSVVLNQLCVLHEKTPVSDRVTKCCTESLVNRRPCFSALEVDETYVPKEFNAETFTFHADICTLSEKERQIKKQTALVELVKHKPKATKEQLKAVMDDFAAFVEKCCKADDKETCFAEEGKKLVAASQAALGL
A short description of data set [2]: Biodistribution of 18F-labeled SST2 ligands in AR42J tumor-bearing mice. It is filed as in vivo. As to conditions: female, CD1 nu/nu, mouse, iv, total radioactivity, 1 h post injection, tail vein. The protocol: All animal experiments were conducted in accordance with general animal welfare regulations in Germany and the institutional guidelines for the care and use of animals. To establish tumor xenografts, AR42J cells (5×10^6 cells/100 μL) were suspended in Dulbecco modified Eagle medium/Nutrition Mixture F-12 with Glutamax-1 (1:1) and inoculated subcutaneously onto the right shoulder of 8 weeks old, female CD1 nu/nu mice (Charles River, Sulzfeld, Germany). Mice were used for experiments when tumors had grown to a diameter of 5-9 mm (7-15 days after inoculation).
Approximately 0.5-2.0 MBq (0.05-0.25 nmol) of the ^18F-labeled SST2-ligands were injected into the tail vein of AR42J tumor-bearing female CD1 nu/nu mice and sacrificed after 1 h post injection (n=3-5). Selected organs were removed, weighted and measured in a γ-counter.
The Tables 4, 5, and 6 summarize the results of the in vivo mouse experiments. For all biodistribution studies, female CD1 nu/nu mice with AR42J tumor xenografts, were used and sacrificed 1 h post injection.

SMILES strings stand for the structures. Where two headings read alike, the source gives them in different places. Where a SMILES comes first, the peptide text is derived from it. Bridges are numbered along the chain shown (N, C = ends). [ ]: non-standard residue; d: D form. The star is where a group is joined. ξ: configuration not given here. Benzoyl(4-SiFtBu2) = CC(C)(C)[Si](F)(c1ccc(C(=O)*)cc1)C(C)(C)C; X1 = CC(C)(C)[Si](F)(c1ccc(C[N+](C)(C)CC(=O)*)cc1)C(C)(C)C; DO3AM = NC(=O)CN1CCN(CC(N)=O)CCN(CC(=O)*)CCN(CC(N)=O)CC1; ξW = NC(Cc1c[nH]c2ccccc12)C(=O)O; dDap = NC[C@@H](N)C(=O)O; ξF = NC(Cc1ccccc1)C(=O)O; ξD = NC(CC(=O)O)C(=O)O; ξDap = NCC(N)C(=O)O; ξC = NC(CS)C(=O)O

As to `C[C@@H](O)[C@H](NC(=O)C1CSSCC(NC(=O)C(Cc2ccccc2)NC(=O)[C@@H](CC(N)=O)NC(=O)C(CC(N)=O)NC(=O)[C@@H](CC(=O)O)NC(=O)C(CC(=O)O)NC(=O)[C@@H](CNC(=O)CN2CCN(CC(=O)O)CCN(CC(=O)O)CCN(CC(=O)O)CC2)NC(=O)C(CN)NC(=O)c2ccc([Si](F)(C(C)(C)C)C(C)(C)C)cc2)C(=O)N[C@@H](Cc2ccc(O)cc2)C(=O)NC(Cc2c[nH]c3ccccc23)C(=O)N[C@@H](CCCCN)C(=O)N[C@@H]([C@@H](C)O)C(=O)N1)C(=O)O` (stereo partly shown) (natGa complex, metal not drawn) [[Ga]42], in data set [1], the “LogDpH=7.4” value is −2.41 ± 0.05. On SST2, this molecule displayed an IC50 of 5.33 ± 0.78 nM. On HSA, the HSA is recorded as 17.97 kDa.

For the molecule `C[C@@H](O)[C@H](NC(=O)C1CSSCC(NC(=O)C(Cc2ccccc2)NC(=O)CNC(=O)CNC(=O)[C@@H](CC(=O)O)NC(=O)C(CC(=O)O)NC(=O)[C@@H](CNC(=O)CN2CCN(CC(N)=O)CCN(CC(N)=O)CCN(CC(N)=O)CC2)NC(=O)C(CN)NC(=O)c2ccc([Si](F)(C(C)(C)C)C(C)(C)C)cc2)C(=O)N[C@@H](Cc2ccc(O)cc2)C(=O)NC(Cc2c[nH]c3ccccc23)C(=O)N[C@@H](CCCCN)C(=O)N[C@@H]([C@@H](C)O)C(=O)N1)C(=O)O` (stereo partly shown) [[Pb]36] ({Benzoyl(4-SiFtBu2)}-[ξDap][dDap](DO3AM)[ξD][dD]GG[ξF][ξC]Y[ξW]KT[ξC]T-OH; disulfide 8-13), the “LogDpH=7.4” value in data set [1] is −1.82 ± 0.05. At SST2, this molecule registered an IC50 of 6.57 ± 0.32 nM. In addition, the HSA on HSA is reported as 20.22 kDa. For the same molecule, the tissue uptake at 1 h in data set [2] (AR42J tumor, AR42J tumor, read-out: Tumor % ID/g ± SD) is 22.3 ± 3.85 %ID/g; in data set [2] (adrenal glands, read-out: Adrenal glands % ID/g ± SD), 2 ± 0.27 %ID/g; in data set [2] (blood, read-out: Blood % ID/g ± SD) it was 1.3 ± 0.21 %ID/g; in data set [2] (bone, read-out: Bone % ID/g ± SD) it was 3.38 ± 0.7 %ID/g; in data set [2] (heart, read-out: Heart % ID/g ± SD), 0.71 ± 0.09 %ID/g; in data set [2] (intestine, read-out: Intestine % ID/g ± SD) it was 1.31 ± 0.21 %ID/g. The tissue uptake at 1 h in data set [2] (kidneys, read-out: Kidneys % ID/g ± SD) was found to be 43 ± 6.22 %ID/g; in data set [2] (liver, read-out: Liver % ID/g ± SD), 8.47 ± 1.23 %ID/g; in data set [2] (lung, read-out: Lung % ID/g ± SD), 2.42 ± 0.5 %ID/g; in data set [2] (muscle, read-out: Muscle % ID/g ± SD), 0.47 ± 0.08 %ID/g; in data set [2] (pancreas, read-out: Pancreas % ID/g ± SD), 9.09 ± 1.79 %ID/g; in data set [2] (spleen, read-out: Spleen % ID/g ± SD) it was 0.84 ± 0.17 %ID/g. Further, the tissue uptake at 1 h in data set [2] (stomach, read-out: Stomach % ID/g ± SD) came to 4.32 ± 0.81 %ID/g.

For `C[C@@H](O)[C@H](NC(=O)C1CSSCC(NC(=O)C(Cc2ccccc2)NC(=O)CNC(=O)CNC(=O)[C@@H](CC(=O)O)NC(=O)C(CC(=O)O)NC(=O)[C@@H](CNC(=O)CN2CCN(CC(N)=O)CCN(CC(N)=O)CCN(CC(N)=O)CC2)NC(=O)C[N+](C)(C)Cc2ccc([Si](F)(C(C)(C)C)C(C)(C)C)cc2)C(=O)N[C@@H](Cc2ccc(O)cc2)C(=O)NC(Cc2c[nH]c3ccccc23)C(=O)N[C@@H](CCCCN)C(=O)N[C@@H]([C@@H](C)O)C(=O)N1)C(=O)O` (stereo partly shown) [[Pb]38] (X1-[dDap](DO3AM)[ξD][dD]GG[ξF][ξC]Y[ξW]KT[ξC]T-OH; disulfide 7-12), the “LogDpH=7.4” value in data set [1] is reported as −1.95 ± 0.03. Besides, the IC50 at SST2 turned out to be 4.67 ± 0.73 nM. Moreover, the HSA on HSA was determined as 9.20 kDa.

For orientation: IC50 means the concentration that gives 50% inhibition. Low readings indicate higher potency, high ones lower potency.
